Assay results published in patent US20070154567A1, “Use of mercury to treat cancer” (priority 2006, published 2007).
Several values for one entry are separate records, joined by “and”; a condition that tells them apart may be missing. Equal values may be shown once.

System: metastatic hepatocellular carcinoma
Assay: Oral inorganic mercury (II) treatment of a pet Husky after tumor removal: blood data and clinical follow-up
Format: in vivo, dog
Set-up: Corrected Calcium / MCV / MCH / MCHC / Neutrophils, absolute / Bands / Lymphocytes, absolute / Monocytes, absolute / Eosinophils, absolute / Basophils, absolute: unit not given here
Protocol: A 10 yrs old female Husky, 54 lbs was diagnosed with metastatic hepatocellular carcinoma. The tumor was surgically removed prior to treatment. The prognosis after the surgery was poor with 1-2 months of life expectancy.
The 90-day inorganic mercury (II) treatment consisted of two 30-day treatment courses and one 30-day interval period. The formulation contained 1 mM mercury acetate in 20 mM sodium acetate buffer, pH 4.5, with 100 mM sucrose and 150 mM sodium chloride additives. The formulation was introduced orally to the pet three times a day 1 hour before food at 0.5 micromole Hg^2+/kg/day. In the beginning of treatment the dog had high levels of alkaline phosphatase (ALP) and alanine transferase (ALT), two liver enzymes known to be associated with liver tumor progression (de Oliveira e Silva et al., Arq Gastroenterol. 1990, 27(2):83-94). […] On Day 3 ALP and ALT were 1950 U/L and 119 U/L, respectively. On day 30 ALP dropped to 495 U/L, whereas ALT was decreased to 27 U/L. Decreases in ALP and ALT levels were correlated well with the improvement of dog's general condition during the first treatment course. During the second treatment course, according to owner's and veterinarian's notes, the dog continued to show improvement and at the end of the treatment period it acted as a healthy dog. Unfortunately, the owner chose not to take blood tests after day 30.

Question: With `CC(=O)[O-].CC(=O)[O-].[Hg+2]` [inorganic mercury (II), mercury acetate] as the compound, how does the “health / cancer status of the dog” value (10 months after treatment) read?
Answer: Its value is “remains in good health and is apparently cancer-free”.

Question: What about the “ALT (SGPT)” value (Day 3) of the same compound?
Answer: The value was 119 U/L and 119 (H) U/L.

Question: And the “AST (SGOT)” value (Day 3)?
Answer: The value was 30 U/L.

Question: What about the Albumin (Day 3) of the same compound?
Answer: Its Albumin is 3.1 g/dL.

Question: What about the “Albumin/Globulin Ratio” value (Day 3) of the same compound?
Answer: Its value is 1.1.

Question: What about the “Alkaline Phosphatase (ALP)” value (Day 3) of the same compound?
Answer: Its value is 1950 U/L and 1950 (H) U/L.

Question: And the Amylase (Day 3)?
Answer: Its Amylase is 369 U/L.

Question: And the “BUN/Creatinine Ratio” value (Day 3)?
Answer: Its value is 17.

Question: What about the Bands (Day 3) of the same compound?
Answer: Its Bands is 0.

Question: What about the “Basophils, absolute” value (Day 3) of the same compound?
Answer: Its value is 0.

Question: What about the CPK (Day 3) of the same compound?
Answer: The CPK was 161 U/L.

Question: What about the Calcium (Day 3) of the same compound?
Answer: The Calcium was 9.4 mg/dL.

Question: What about the Chloride (Day 3) of the same compound?
Answer: Its Chloride is 114 mE/L.

Question: What about the Cholesterol (Day 3) of the same compound?
Answer: Its Cholesterol is 250 mg/dL.

Question: What about the “Corrected Calcium” value (Day 3) of the same compound?
Answer: The value was 9.8.

Question: What about the Creatinine (Day 3) of the same compound?
Answer: The Creatinine was 1.0 mg/dL.

Question: And the “Eosinophils, (%)” value (Day 3)?
Answer: Its value is 7%.

Question: What about the “Eosinophils, absolute” value (Day 3) of the same compound?
Answer: Its value is 812.

Question: And the Globulin (Day 3)?
Answer: The Globulin was 2.8 g/dL.

Question: And the Glucose (Day 3)?
Answer: The Glucose was 94 mg/dL.

Question: And the Hematocrit (Day 3)?
Answer: The Hematocrit was 43.1%.

Question: What about the Hemoglobin (Day 3) of the same compound?
Answer: The Hemoglobin was 14.7 g/dL.

Question: What about the “Lymphocytes, (%)” value (Day 3) of the same compound?
Answer: The value was 18%.

Question: And the “Lymphocytes, absolute” value (Day 3)?
Answer: Its value is 2088.

Question: What about the MCH (Day 3) of the same compound?
Answer: The MCH was 22.3.

Question: What about the MCHC (Day 3) of the same compound?
Answer: Its MCHC is 34.1.

Question: What about the MCV (Day 3) of the same compound?
Answer: The MCV was 65.

Question: And the “Monocytes, (%)” value (Day 3)?
Answer: Its value is 4%.

Question: What about the “Monocytes, absolute” value (Day 3) of the same compound?
Answer: The value was 464.

Question: And the “Neutrophils, (%)” value (Day 3)?
Answer: Its value is 71%.

Question: What about the “Neutrophils, absolute” value (Day 3) of the same compound?
Answer: Its value is 8236.

Question: And the Phosphorus (Day 3)?
Answer: The Phosphorus was 3.8 mg/dL.

Question: What about the Platelet count (Day 3) of the same compound?
Answer: Its Platelet count is 394 10^3/microl.

Question: And the Potassium (Day 3)?
Answer: Its Potassium is 4.5 mE/L.

Question: And the RBC (Day 3)?
Answer: The RBC was 6.59 10^6/microl.

Question: And the Sodium (Day 3)?
Answer: Its Sodium is 149 mE/L.

Question: And the “Total Billirubin” value (Day 3)?
Answer: The value was 0.1 mg/dL.

Question: And the “Total Protein” value (Day 3)?
Answer: The value was 5.9 g/dL.

Question: And the “Urea Nitrogen” value (Day 3)?
Answer: Its value is 17 mg/dL.

Question: And the WBC (Day 3)?
Answer: The WBC was 11.6 10^3/microl.

Question: And the “ALT (SGPT)” value (Day 9)?
Answer: Its value is 51 U/L.

Question: What about the “AST (SGOT)” value (Day 9) of the same compound?
Answer: The value was 18 U/L.

Question: And the Albumin (Day 9)?
Answer: The Albumin was 3.2 g/dL.

Question: What about the “Albumin/Globulin Ratio” value (Day 9) of the same compound?
Answer: Its value is 1.1.

Question: What about the “Alkaline Phosphatase (ALP)” value (Day 9) of the same compound?
Answer: The value was 1368 (H) U/L.

Question: And the Amylase (Day 9)?
Answer: The Amylase was 348 U/L.

Question: And the “BUN/Creatinine Ratio” value (Day 9)?
Answer: The value was 8.

Question: What about the Bands (Day 9) of the same compound?
Answer: The Bands was 0.

Question: And the “Basophils, absolute” value (Day 9)?
Answer: The value was 0.

Question: What about the CPK (Day 9) of the same compound?
Answer: The CPK was 119 U/L.

Question: What about the Calcium (Day 9) of the same compound?
Answer: The Calcium was 9.8 mg/dL.

Question: And the Chloride (Day 9)?
Answer: Its Chloride is 115 mE/L.

Question: And the Cholesterol (Day 9)?
Answer: The Cholesterol was 237 mg/dL.

Question: What about the “Corrected Calcium” value (Day 9) of the same compound?
Answer: The value was 10.1.

Question: What about the Creatinine (Day 9) of the same compound?
Answer: The Creatinine was 1.0 mg/dL.

Question: And the “Eosinophils, (%)” value (Day 9)?
Answer: Its value is 3%.

Question: And the “Eosinophils, absolute” value (Day 9)?
Answer: The value was 405.

Question: And the Globulin (Day 9)?
Answer: The Globulin was 3.0 g/dL.

Question: And the Glucose (Day 9)?
Answer: The Glucose was 93 mg/dL.

Question: What about the Hematocrit (Day 9) of the same compound?
Answer: The Hematocrit was 53.1%.

Question: What about the Hemoglobin (Day 9) of the same compound?
Answer: Its Hemoglobin is 17.4 g/dL.

Question: And the “Lymphocytes, (%)” value (Day 9)?
Answer: The value was 15%.

Question: And the “Lymphocytes, absolute” value (Day 9)?
Answer: Its value is 2025.

Question: What about the MCH (Day 9) of the same compound?
Answer: The MCH was 21.8.

Question: What about the MCHC (Day 9) of the same compound?
Answer: The MCHC was 32.8.

Question: What about the MCV (Day 9) of the same compound?
Answer: Its MCV is 67.

Question: What about the “Monocytes, (%)” value (Day 9) of the same compound?
Answer: Its value is 3%.

Question: What about the “Monocytes, absolute” value (Day 9) of the same compound?
Answer: The value was 405.

Question: And the “Neutrophils, (%)” value (Day 9)?
Answer: The value was 79%.

Question: What about the “Neutrophils, absolute” value (Day 9) of the same compound?
Answer: Its value is 10665.

Question: And the Phosphorus (Day 9)?
Answer: Its Phosphorus is 3.8 mg/dL.

Question: And the Platelet count (Day 9)?
Answer: The Platelet count was 406 (H) 10^3/microl.

Question: And the Potassium (Day 9)?
Answer: Its Potassium is 4.7 mE/L.

Question: What about the RBC (Day 9) of the same compound?
Answer: Its RBC is 7.97 10^6/microl.

Question: And the Sodium (Day 9)?
Answer: The Sodium was 152 mE/L.

Question: What about the “Total Billirubin” value (Day 9) of the same compound?
Answer: Its value is 0.1 mg/dL.

Question: What about the “Total Protein” value (Day 9) of the same compound?
Answer: The value was 6.2 g/dL.

Question: What about the “Urea Nitrogen” value (Day 9) of the same compound?
Answer: Its value is 8 mg/dL.

Question: What about the WBC (Day 9) of the same compound?
Answer: The WBC was 13.5 10^3/microl.

Question: What about the “ALT (SGPT)” value (Day 30) of the same compound?
Answer: Its value is 27 U/L.

Question: What about the “AST (SGOT)” value (Day 30) of the same compound?
Answer: The value was 26 U/L.

Question: What about the Albumin (Day 30) of the same compound?
Answer: The Albumin was 3.4 g/dL.

Question: What about the “Albumin/Globulin Ratio” value (Day 30) of the same compound?
Answer: Its value is 1.1.

Question: What about the “Alkaline Phosphatase (ALP)” value (Day 30) of the same compound?
Answer: The value was 495 U/L and 495 (H) U/L.

Question: What about the Amylase (Day 30) of the same compound?
Answer: The Amylase was 349 U/L.

Question: And the “BUN/Creatinine Ratio” value (Day 30)?
Answer: Its value is 16.

Question: And the Bands (Day 30)?
Answer: Its Bands is 0.

Question: What about the “Basophils, absolute” value (Day 30) of the same compound?
Answer: The value was 0.

Question: What about the CPK (Day 30) of the same compound?
Answer: The CPK was 488 U/L.

Question: And the Calcium (Day 30)?
Answer: The Calcium was 10.3 mg/dL.

Question: What about the Chloride (Day 30) of the same compound?
Answer: The Chloride was 117 mE/L.

Question: And the Cholesterol (Day 30)?
Answer: Its Cholesterol is 248 mg/dL.

Question: And the “Corrected Calcium” value (Day 30)?
Answer: The value was 10.4.

Question: What about the Creatinine (Day 30) of the same compound?
Answer: Its Creatinine is 0.9 mg/dL.

Question: What about the “Eosinophils, (%)” value (Day 30) of the same compound?
Answer: Its value is 6%.

Question: And the “Eosinophils, absolute” value (Day 30)?
Answer: Its value is 504.

Question: What about the Globulin (Day 30) of the same compound?
Answer: Its Globulin is 3.0 g/dL.

Question: What about the Glucose (Day 30) of the same compound?
Answer: Its Glucose is 113 mg/dL.

Question: What about the Hematocrit (Day 30) of the same compound?
Answer: The Hematocrit was 50.3%.

Question: And the Hemoglobin (Day 30)?
Answer: The Hemoglobin was 15.8 g/dL.

Question: What about the “Lymphocytes, (%)” value (Day 30) of the same compound?
Answer: Its value is 17%.

Question: And the “Lymphocytes, absolute” value (Day 30)?
Answer: The value was 1428.

Question: What about the MCH (Day 30) of the same compound?
Answer: The MCH was 20.9.

Question: What about the MCHC (Day 30) of the same compound?
Answer: Its MCHC is 31.4.

Question: And the MCV (Day 30)?
Answer: The MCV was 66.

Question: What about the “Monocytes, (%)” value (Day 30) of the same compound?
Answer: Its value is 4%.

Question: And the “Monocytes, absolute” value (Day 30)?
Answer: Its value is 336.

Question: What about the “Neutrophils, (%)” value (Day 30) of the same compound?
Answer: The value was 73%.

Question: And the “Neutrophils, absolute” value (Day 30)?
Answer: Its value is 6132.

Question: And the Phosphorus (Day 30)?
Answer: The Phosphorus was 3.3 mg/dL.

Question: And the Platelet count (Day 30)?
Answer: Its Platelet count is 385 10^3/microl.

Question: What about the Potassium (Day 30) of the same compound?
Answer: Its Potassium is 4.1 mE/L.

Question: And the RBC (Day 30)?
Answer: Its RBC is 7.57 10^6/microl.

Question: And the Sodium (Day 30)?
Answer: The Sodium was 152 mE/L.

Question: What about the “Total Billirubin” value (Day 30) of the same compound?
Answer: Its value is 0.1 mg/dL.

Question: And the “Total Protein” value (Day 30)?
Answer: The value was 6.4 g/dL.

Question: What about the “Urea Nitrogen” value (Day 30) of the same compound?
Answer: Its value is 14 mg/dL.

Question: And the WBC (Day 30)?
Answer: Its WBC is 8.4 10^3/microl.

Question: And the “levels of ALP and ALT” value (during the first treatment course)?
Answer: Its value is “dramatically decreased”.
